Experimental data published in PubChem BioAssay AID1918948 (Molecular Pharmacology Branch, DTP, NCI, 2023).

Test system: K-562 leukemia growth, % test/control
Test: Anticancer human tumor K-562 cell line growth inhibition;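 for viability, T/C: 100% = DMSO vehicle wells and lower values mean fewer viable cells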
Conditions: spheroids with HUVEC and MSC; for IC50: curve of first compound; for viability, T/C: stronger effect = lower value
In short: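 Complex spheroids of tumor cells with HUVEC and human MSCs, exposed to iadademstat combined with other agents. Each agent tested in half-log steps from near clinical Cmax (else 10 microM top), DMSO ≤0.25%.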

[1] = second compound 0.1 µM, first compound 0.00316 µM
[2] = second compound 0.1 µM, first compound 0.01 µM
[3] = second compound 0.1 µM, first compound 0.0316 µM
[4] = second compound 0.1 µM, first compound 0.1 µM
[5] = second compound 0.1 µM, first compound 0.316 µM
[6] = second compound 0.1 µM, first compound 1 µM
[7] = second compound 0.316 µM, first compound 0.00316 µM
[8] = second compound 0.316 µM, first compound 0.01 µM
[9] = second compound 0.316 µM, first compound 0.0316 µM
[10] = second compound 0.316 µM, first compound 0.1 µM
[11] = second compound 0.316 µM, first compound 0.316 µM
[12] = second compound 0.316 µM, first compound 1 µM
[13] = second compound 1 µM, first compound 0.00316 µM
[14] = second compound 1 µM, first compound 0.01 µM
[15] = second compound 1 µM, first compound 0.0316 µM
[16] = second compound 1 µM, first compound 0.1 µM
[17] = second compound 1 µM, first compound 0.316 µM
[18] = second compound 1 µM, first compound 1 µM
[19] = second compound 3.16 µM, first compound 0.00316 µM
[20] = second compound 3.16 µM, first compound 0.01 µM
[21] = second compound 3.16 µM, first compound 0.0316 µM
[22] = second compound 3.16 µM, first compound 0.1 µM
[23] = second compound 3.16 µM, first compound 0.316 µM
[24] = second compound 3.16 µM, first compound 1 µM
[25] = second compound 10 µM, first compound 0.00316 µM
[26] = second compound 10 µM, first compound 0.01 µM
[27] = second compound 10 µM, first compound 0.0316 µM
[28] = second compound 10 µM, first compound 0.1 µM
[29] = second compound 10 µM, first compound 0.316 µM
[30] = second compound 10 µM, first compound 1 µM

`CC1COCCN1c1cc(-c2ccnn2C)c2ccnc(-c3ccn[nH]3)c2n1` (stereo not given) + NC1CCC(NC2CC2c2ccccc2)CC1 showed an IC50 (second compound 0.1 µM) of 11.2 nM, an IC50 (second compound 0.316 µM) of 12.2 nM and an IC50 (second compound 1 µM) of 11.4 nM. It also gave an IC50 (second compound 3.16 µM) of 10.1 nM, an IC50 (second compound 10 µM) of 7.2 nM and a viability, T/C [1] of 90.4%. For the same compound, the viability, T/C [2] was 54.5%, the viability, T/C [3] was 10.2% and the viability, T/C [4] was 3.75%. For the same compound, the viability, T/C [5] was 2.62%, the viability, T/C [6] was 2.45% and the viability, T/C [7] was 91%. The viability, T/C [8] was 57.9%, the viability, T/C [9] was 12.9% and the viability, T/C [10] was 3.52%. The viability, T/C [11] was 2.63%, the viability, T/C [12] was 2.48% and the viability, T/C [13] was 92.7%. For the same compound, the viability, T/C [14] was 55.1%, the viability, T/C [15] was 9.5% and the viability, T/C [16] was 3.51%. For the same compound, the viability, T/C [17] was 2.76%, the viability, T/C [18] was 2.82% and the viability, T/C [19] was 92.2%. The viability, T/C [20] was 50.2%, the viability, T/C [21] was 11.5% and the viability, T/C [22] was 3.8%. It also gave a viability, T/C [23] of 3.16%, a viability, T/C [24] of 2.7% and a viability, T/C [25] of 83.3%. For the same compound, the viability, T/C [26] was 36.7%, the viability, T/C [27] was 8.26% and the viability, T/C [28] was 4.09%. The viability, T/C [29] was 2.75% and the viability, T/C [30] was 3.72%.
For `CC1COCCN1c1cc(C2(S(C)(=N)=O)CC2)nc(-c2ccnc3[nH]ccc23)n1` (stereo not given) + NC1CCC(NC2CC2c2ccccc2)CC1, the IC50 (second compound 0.1 µM) was 578 nM, the IC50 (second compound 0.316 µM) was 603 nM and the IC50 (second compound 1 µM) was 614 nM. For the same compound, the IC50 (second compound 3.16 µM) was 602 nM, the IC50 (second compound 10 µM) was 511 nM and the viability, T/C [3] was 101%. The viability, T/C [4] was 97.5%, the viability, T/C [5] was 81.8% and the viability, T/C [6] was 21.2%. The viability, T/C (second compound 0.1 µM, first compound 3.16 µM) was 3.64%, the viability, T/C (second compound 0.1 µM, first compound 10 µM) was 2.72% and the viability, T/C [9] was 104%. It also gave a viability, T/C [10] of 96.9%, a viability, T/C [11] of 84.5% and a viability, T/C [12] of 23.1%. It also gave a viability, T/C (second compound 0.316 µM, first compound 3.16 µM) of 4.12%, a viability, T/C (second compound 0.316 µM, first compound 10 µM) of 2.74% and a viability, T/C [15] of 106%. For the same compound, the viability, T/C [16] was 101%, the viability, T/C [17] was 86.2% and the viability, T/C [18] was 23.4%. It also gave a viability, T/C (second compound 1 µM, first compound 3.16 µM) of 3.81%, a viability, T/C (second compound 1 µM, first compound 10 µM) of 2.62% and a viability, T/C [21] of 103%. For the same compound, the viability, T/C [22] was 99.7%, the viability, T/C [23] was 84.5% and the viability, T/C [24] was 22.9%. It also gave a viability, T/C (second compound 3.16 µM, first compound 3.16 µM) of 3.69%, a viability, T/C (second compound 3.16 µM, first compound 10 µM) of 2.79% and a viability, T/C [27] of 96.6%. The viability, T/C [28] was 98.2%, the viability, T/C [29] was 73.2% and the viability, T/C [30] was 17.3%. For the same compound, the viability, T/C (second compound 10 µM, first compound 3.16 µM) was 3.62% and the viability, T/C (second compound 10 µM, first compound 10 µM) was 2.14%.
Compound `Nc1ncn(C2CC(O)C(CO)S2)c(=O)n1` (stereo not given) + NC1CCC(NC2CC2c2ccccc2)CC1 has an IC50 (second compound 0.1 µM) of 175 nM, an IC50 (second compound 0.316 µM) of 171 nM and an IC50 (second compound 1 µM) of 148 nM. It also gave an IC50 (second compound 3.16 µM) of 136 nM, an IC50 (second compound 10 µM) of 60 nM and a viability, T/C (second compound 0.1 µM, first compound 0.000949 µM) of 102%. The viability, T/C (second compound 0.1 µM, first compound 0.003 µM) was 106%, the viability, T/C (second compound 0.1 µM, first compound 0.00949 µM) was 107% and the viability, T/C (second compound 0.1 µM, first compound 0.03 µM) was 95.6%. The viability, T/C (second compound 0.1 µM, first compound 0.0949 µM) was 69%, the viability, T/C (second compound 0.1 µM, first compound 0.3 µM) was 33.5% and the viability, T/C (second compound 0.316 µM, first compound 0.000949 µM) was 106%. It also gave a viability, T/C (second compound 0.316 µM, first compound 0.003 µM) of 108%, a viability, T/C (second compound 0.316 µM, first compound 0.00949 µM) of 108% and a viability, T/C (second compound 0.316 µM, first compound 0.03 µM) of 95.7%. For the same compound, the viability, T/C (second compound 0.316 µM, first compound 0.0949 µM) was 68%, the viability, T/C (second compound 0.316 µM, first compound 0.3 µM) was 33% and the viability, T/C (second compound 1 µM, first compound 0.000949 µM) was 108%. It also gave a viability, T/C (second compound 1 µM, first compound 0.003 µM) of 110%, a viability, T/C (second compound 1 µM, first compound 0.00949 µM) of 107% and a viability, T/C (second compound 1 µM, first compound 0.03 µM) of 94.3%. For the same compound, the viability, T/C (second compound 1 µM, first compound 0.0949 µM) was 65.2%, the viability, T/C (second compound 1 µM, first compound 0.3 µM) was 26.6% and the viability, T/C (second compound 3.16 µM, first compound 0.000949 µM) was 108%. For the same compound, the viability, T/C (second compound 3.16 µM, first compound 0.003 µM) was 111%, the viability, T/C (second compound 3.16 µM, first compound 0.00949 µM) was 106% and the viability, T/C (second compound 3.16 µM, first compound 0.03 µM) was 89.2%. The viability, T/C (second compound 3.16 µM, first compound 0.0949 µM) was 60.3%, the viability, T/C (second compound 3.16 µM, first compound 0.3 µM) was 28.4% and the viability, T/C (second compound 10 µM, first compound 0.000949 µM) was 102%. The viability, T/C (second compound 10 µM, first compound 0.003 µM) was 107%, the viability, T/C (second compound 10 µM, first compound 0.00949 µM) was 95.9% and the viability, T/C (second compound 10 µM, first compound 0.03 µM) was 70.7%. For the same compound, the viability, T/C (second compound 10 µM, first compound 0.0949 µM) was 36.5% and the viability, T/C (second compound 10 µM, first compound 0.3 µM) was 18.6%.
`O=C(C=Cn1cnc(-c2cc(C(F)(F)F)cc(C(F)(F)F)c2)n1)NNc1cnccn1` + NC1CCC(NC2CC2c2ccccc2)CC1 gave an IC50 (second compound 0.1 µM) of 59.8 nM, an IC50 (second compound 0.316 µM) of 58.9 nM and an IC50 (second compound 1 µM) of 61 nM. For the same compound, the IC50 (second compound 3.16 µM) was 60.6 nM, the IC50 (second compound 10 µM) was 43.1 nM and the viability, T/C [1] was 104%. For the same compound, the viability, T/C [2] was 92.3%, the viability, T/C [3] was 69.5% and the viability, T/C [4] was 36.6%. It also gave a viability, T/C [5] of 4.19%, a viability, T/C [6] of 1.72% and a viability, T/C [7] of 107%. It also gave a viability, T/C [8] of 92%, a viability, T/C [9] of 69.2% and a viability, T/C [10] of 36.5%. For the same compound, the viability, T/C [11] was 4.44%, the viability, T/C [12] was 1.67% and the viability, T/C [13] was 107%. For the same compound, the viability, T/C [14] was 91.5%, the viability, T/C [15] was 70% and the viability, T/C [16] was 38.2%. For the same compound, the viability, T/C [17] was 4.8%, the viability, T/C [18] was 2.29% and the viability, T/C [19] was 103%. It also gave a viability, T/C [20] of 92.5%, a viability, T/C [21] of 67.8% and a viability, T/C [22] of 38.8%. It also gave a viability, T/C [23] of 4.71%, a viability, T/C [24] of 1.78% and a viability, T/C [25] of 88.8%. It also gave a viability, T/C [26] of 75.1%, a viability, T/C [27] of 57.1% and a viability, T/C [28] of 33.7%. The viability, T/C [29] was 3.55% and the viability, T/C [30] was 2.29%.
